The values below come from article PMC6381124, “Aplysinopsin-type and Bromotyrosine-derived Alkaloids from the South China Sea Sponge Fascaplysinopsis reticulata” (Scientific Reports, 2019).

Data set [1] in a line: Cytotoxicity assay (MTT method) against Jurkat cell lines. In kind it is cell-based. As to conditions: human, Jurkat cells (human T-cell leukemia), Doxorubicin as positive control. How it is done: (§1) The cytotoxicity assay of the isolated compounds were evaluated against human lung carcinoma (A549), human cervical cancer (HeLa), human leukemia (K562), and human T-cell leukemia (Jurkat) cell lines using the MTT method with Doxorubicin as the positive control.

In data set [2] the test system is human cervical cancer (HeLa) cell lines. Kind of data set: Cytotoxicity assay (MTT method) against HeLa cell lines. In kind it is cell-based. To be noted: HeLa cells. As to the method: as §1

The compound `COC(=O)NCCCCCNC(=O)C1=NO[C@]2(C=C(Br)C(OC)=C(Br)[C@@H]2O)C1` [Compound 19, Subereamolline D] registered an IC50 in data set [1] of 0.88 µM.

As to `CN1C(=O)N(C)C(O)(CC2(O)C(=O)Nc3ccccc32)C1=O` (single isomer, unassigned; (-)) [(−)-3, (−)-oxoaplysinopsin C], in data set [2], the concentration for half-maximal inhibition (IC50) turned out to be 61.6 µM.

As to `CN1C(=O)N(C)C(O)(CC2(O)C(=O)Nc3ccccc32)C1=O` (single isomer, unassigned; (+)) [(+)-3, (+)-oxoaplysinopsin C], inhibition in data set [2] was half-maximal at 27 µM (IC50).
